Twelve molecules from ChEMBL document CHEMBL5046233, “Nitroxoline and its derivatives are potent inhibitors of metallo-β-lactamases” (Eur J Med Chem, 2022) can be followed below.

A short description of series [1]: Inhibition of recombinant NDM-1 (unknown origin) using fluorocillin as substrate at 30 uM incubated for 30 mins by fluorescence based assay. To be noted: Bacteria.
Series [2] is described as follows: Inhibition of recombinant NDM-1 (unknown origin) using fluorocillin as substrate at 10 uM incubated for 30 mins by fluorescence based assay. To be noted: Bacteria.
The nature of series [3]: Inhibition of recombinant NDM-1 (unknown origin) using fluorocillin as substrate at 3 uM incubated for 30 mins by fluorescence based assay. The conditions noted are these: Bacteria.
Series [4] concerns Bacteria. Description: Inhibition of recombinant VIM-1 (unknown origin) using fluorocillin as substrate at 30 uM incubated for 30 mins by fluorescence based assay.
Series [5] relates to Bacteria. Put plainly: Inhibition of recombinant VIM-1 (unknown origin) using fluorocillin as substrate at 10 uM incubated for 30 mins by fluorescence based assay.
The subject of series [6] is Bacteria. Put plainly: Inhibition of recombinant VIM-1 (unknown origin) using fluorocillin as substrate at 3 uM incubated for 30 mins by fluorescence based assay.
The test system of series [7] is Bacteria. Description: Inhibition of recombinant IMP-1 (unknown origin) using fluorocillin as substrate at 30 uM incubated for 30 mins by fluorescence based assay.
Series [8] relates to Bacteria. Put plainly: Inhibition of recombinant IMP-1 (unknown origin) using fluorocillin as substrate at 10 uM incubated for 30 mins by fluorescence based assay.
Series [9] relates to Bacteria. Put plainly: Inhibition of recombinant IMP-1 (unknown origin) using fluorocillin as substrate at 3 uM incubated for 30 mins by fluorescence based assay.
Series [10] in a line: Cytotoxicity against human HUVEC cells assessed as metabolic activity measured after 24 hrs by cell-titer blue assay. The format is toxicity, cell-based.
The test system of series [11] is Klebsiella pneumoniae. Description: Antimicrobial activity against Klebsiella pneumoniae clinical isolate T2301 expressing NDM-1 assessed as inhibition of bacterial growth by CLSI protocol based broth microdilution assay. The format is functional. (In general: Dilution methods test growth across graded concentrations, often in twofold steps.)
Series [12] has as its system Escherichia coli. Put plainly: Antimicrobial activity against Escherichia coli clinical isolate T2228 expressing VIM-1 assessed as inhibition of bacterial growth by CLSI protocol based broth microdilution assay. The format is functional.
Series [13] deals with Escherichia coli. Description: Antimicrobial activity against Escherichia coli T2359 expressing NDM-1 assessed as inhibition of bacterial growth by CLSI protocol based broth microdilution assay. The format is functional.
Series [14] concerns Escherichia coli. Description: Antimicrobial activity against Escherichia coli T2544 expressing VIM-1 assessed as inhibition of bacterial growth by CLSI protocol based broth microdilution assay. The format is functional.
Another series deals with Serratia marcescens. Description: Antimicrobial activity against Serratia marcescens T2352 expressing NDM-1 assessed as inhibition of bacterial growth by CLSI protocol based broth microdilution assay. The format is functional.
For series [15], the system named is Enterobacter cloacae. Description: Antimicrobial activity against Enterobacter cloacae T2311 expressing NDM-1 assessed as inhibition of bacterial growth by CLSI protocol based broth microdilution assay. In kind it is functional.
In series [16] the test system is Escherichia coli. Put plainly: Antimicrobial activity against Escherichia coli T2351 expressing NDM-5 assessed as inhibition of bacterial growth by CLSI protocol based broth microdilution assay. The format is functional.
The subject of series [17] is Pseudomonas aeruginosa. Put plainly: Antimicrobial activity against Pseudomonas aeruginosa T2325 expressing IMP-1 assessed as inhibition of bacterial growth by CLSI protocol based broth microdilution assay. The format is functional.
Series [18] deals with Pseudomonas aeruginosa. Description: Antimicrobial activity against Pseudomonas aeruginosa T1098 expressing IMP-7 assessed as inhibition of bacterial growth by CLSI protocol based broth microdilution assay. The format is functional.
Series [19] deals with Citrobacter freundii. Description: Antimicrobial activity against Citrobacter freundii T2354 expressing VIM-4 assessed as inhibition of bacterial growth by CLSI protocol based broth microdilution assay. The format is functional.
Series [20] has as its system Enterobacter cloacae. Description: Antimicrobial activity against Enterobacter cloacae T2353 expressing VIM-1 assessed as inhibition of bacterial growth by CLSI protocol based broth microdilution assay. In kind it is functional.
Series [21] deals with Pseudomonas aeruginosa. Put plainly: Antimicrobial activity against Pseudomonas aeruginosa T2357 expressing VIM-1 assessed as inhibition of bacterial growth by CLSI protocol based broth microdilution assay. The format is functional.
The test system of series [22] is Klebsiella pneumoniae. Put plainly: Antimicrobial activity against Klebsiella pneumoniae T2216 expressing VIM-1 assessed as inhibition of bacterial growth by CLSI protocol based broth microdilution assay. In kind it is functional.
Series [23] deals with Pseudomonas aeruginosa. Description: Antimicrobial activity against Pseudomonas aeruginosa T2217 expressing VIM-2 assessed as inhibition of bacterial growth by CLSI protocol based broth microdilution assay. The format is functional.
Series [24] has as its system Pseudomonas aeruginosa. Put plainly: Antimicrobial activity against Pseudomonas aeruginosa T2282 expressing VIM-2 assessed as inhibition of bacterial growth by CLSI protocol based broth microdilution assay. In kind it is functional.
The test system of series [25] is Pseudomonas aeruginosa. Put plainly: Antimicrobial activity against Pseudomonas aeruginosa T2283 expressing VIM-2 assessed as inhibition of bacterial growth by CLSI protocol based broth microdilution assay. In kind it is functional.
The test system of series [26] is Pseudomonas aeruginosa. Put plainly: Antimicrobial activity against Pseudomonas aeruginosa T2229 expressing SPM-1 assessed as inhibition of bacterial growth by CLSI protocol based broth microdilution assay. In kind it is functional.
In series [27] the test system is Enterobacter cloacae. Description: Antimicrobial activity against Enterobacter cloacae T2218 expressing GIM-1 assessed as inhibition of bacterial growth by CLSI protocol based broth microdilution assay. In kind it is functional.
The subject of series [28] is Escherichia coli. Put plainly: Antimicrobial activity against Escherichia coli T2435 expressing KPC-2 assessed as inhibition of bacterial growth by CLSI protocol based broth microdilution assay. The format is functional.
Series [29] deals with Citrobacter freundii. Description: Antimicrobial activity against Citrobacter freundii expressing T2431 KPC-3 assessed as inhibition of bacterial growth by CLSI protocol based broth microdilution assay. In kind it is functional.
Series [30] deals with Klebsiella pneumoniae. Put plainly: Antimicrobial activity against Klebsiella pneumoniae T2432 expressing KPC-9 assessed as inhibition of bacterial growth by CLSI protocol based broth microdilution assay. The format is functional.
The test system of series [31] is Escherichia coli. Description: Antimicrobial activity against Escherichia coli T2433 expressing OXA-48 assessed as inhibition of bacterial growth by CLSI protocol based broth microdilution assay. The format is functional.
Series [32] relates to Klebsiella pneumoniae. Put plainly: Antimicrobial activity against Klebsiella pneumoniae T2301 expressing NDM-1 assessed as assessed as inhibition of bacterial growth at 0.5XMIC measured after 24 hrs by time-kill assay. The format is functional, organism-based.
Series [33] relates to Escherichia coli. Description: Antimicrobial activity against Escherichia coli T2359 expressing VIM-1 assessed as assessed as inhibition of bacterial growth at 0.5XMIC measured after 24 hrs by time-kill assay. In kind it is functional, organism-based.
In series [34] the test system is Klebsiella pneumoniae. Put plainly: Antimicrobial activity against Klebsiella pneumoniae T2301 expressing NDM-1 assessed as inhibition of bacterial growth at 0.5XMIC for 6 hrs by CLSI protocol based broth microdilution assay. The format is functional, organism-based.
Series [35] has as its system Escherichia coli. Description: Antimicrobial activity against Escherichia coli T2359 expressing VIM-1 assessed as inhibition of bacterial growth at 0.5XMIC for 6 hrs by CLSI protocol based broth microdilution assay. In kind it is functional, organism-based.
In series [36] the test system is Escherichia coli. The conditions noted are these: T2228.

≈ marks a conversion by molar mass, not a printed value. Calls of active or inactive are those of the source. The rule behind the calls is not given here.

`O=[N+]([O-])c1ccc(O)c2ncccc12` [NITROXOLINE]: the inhibition in series [1] was 99%; in series [2], 81%; in series [3], less than 20%; with Bacteria [4], 75%; in the series with Bacteria [5], 31%; in the series on Bacteria [6], less than 20%. Also, the inhibition in the series with Bacteria [7] was 95%; in the series on Bacteria [8], 42%; in the series with Bacteria [9], less than 20%. Further, the IC50 at 24 h in series [10] amounted to 283 µg/mL (≈ 1490 µM).
Regarding `CC(C)(O/N=C(\C(=O)N[C@@H]1C(=O)N2C(C(=O)[O-])=C(C[n+]3ccccc3)CS[C@H]12)c1csc(N)n1)C(=O)O` [CEFTAZIDIME], the MIC in the series on Klebsiella pneumoniae [11] turned out to be 4.1 µg/mL (≈ 7.49 µM); with Escherichia coli [12] it was 0.256 µg/mL (≈ 0.468 µM).
In the case of `C[C@@H](O)[C@H]1C(=O)N2C(C(=O)O)=C(S[C@@H]3CN[C@H](C(=O)N(C)C)C3)[C@H](C)[C@H]12` [MEROPENEM], the minimum inhibitory concentration (MIC) was found to be 0.128 µg/mL (≈ 0.334 µM) with Klebsiella pneumoniae [11] and 0.008 µg/mL (≈ 0.0209 µM) in the series with Escherichia coli [12].
Take `CO/N=C(\C(=O)N[C@@H]1C(=O)N2C(C(=O)O)=C(COC(N)=O)CS[C@H]12)c1ccco1` [CEFUROXIME]: the results for the MIC in the series with Klebsiella pneumoniae [11] and with Escherichia coli [12] were 8.19 µg/mL (≈ 19.3 µM) and 1.02 µg/mL (≈ 2.41 µM), respectively.
In the case of `CN(CC#N)Cc1ccc2c([N+](=O)[O-])ccc(O)c2n1`, the inhibition is 93% in [1]; 47% in series [2]; less than 20% in series [3]; 92% in the series on Bacteria [4]; 53% with Bacteria [5]; 23% in the series with Bacteria [6]. Moreover, the results for the inhibition with Bacteria [7], in the series with Bacteria [8] and in the series on Bacteria [9] were 78%, 38% and less than 20%, respectively.
Take `O=C(O)c1ccc2c([N+](=O)[O-])ccc(O)c2n1`: the inhibition in series [1] is 100%; in series [2], 95%; in [3], 20%; in the series on Bacteria [4], 99%; with Bacteria [5] it was 99%; with Bacteria [6] it was 70%. Besides, the inhibition stood at 99% in the series on Bacteria [7], 96% in the series on Bacteria [8] and 74% in the series with Bacteria [9].
Consider `C[C@@H](O)[C@H]1C(=O)N2C(C(=O)O)=C(SCCNC=N)C[C@H]12` [IMIPENEM ANHYDROUS], for which the MIC was 0.128 µg/mL (≈ 0.428 µM) in the series with Escherichia coli [13]; 0.032 µg/mL (≈ 0.107 µM) in the series on Escherichia coli [14]; 0.016 µg/mL (≈ 0.0534 µM) with Klebsiella pneumoniae [11]; 0.008 µg/mL (≈ 0.0267 µM) in the series with Escherichia coli [12]; 0.256 µg/mL (≈ 0.855 µM) with Serratia marcescens; 0.008 µg/mL (≈ 0.0267 µM) in the series with Enterobacter cloacae [15]. The MIC in the series with Escherichia coli [16] was 0.008 µg/mL (≈ 0.0267 µM); in the series with Pseudomonas aeruginosa [17], 0.032 µg/mL (≈ 0.107 µM); in the series with Pseudomonas aeruginosa [18], 0.128 µg/mL (≈ 0.428 µM); with Citrobacter freundii [19] it was 2 µg/mL (≈ 6.68 µM); in the series with Enterobacter cloacae [20] it was 0.008 µg/mL (≈ 0.0267 µM); with Pseudomonas aeruginosa [21], 0.256 µg/mL (≈ 0.855 µM). Besides, the MIC in the series on Klebsiella pneumoniae [22] stood at 0.004 µg/mL (≈ 0.0134 µM); with Pseudomonas aeruginosa [23], 0.256 µg/mL (≈ 0.855 µM); with Pseudomonas aeruginosa [24], 0.256 µg/mL (≈ 0.855 µM); in the series on Pseudomonas aeruginosa [25], 0.032 µg/mL (≈ 0.107 µM); with Pseudomonas aeruginosa [26], 0.512 µg/mL (≈ 1.71 µM); in the series with Enterobacter cloacae [27], 0.002 µg/mL (≈ 0.00668 µM). The MIC in the series on Escherichia coli [28] is 0.004 µg/mL (≈ 0.0134 µM); with Citrobacter freundii [29] it was 0.008 µg/mL (≈ 0.0267 µM); in the series on Klebsiella pneumoniae [30], 0.032 µg/mL (≈ 0.107 µM); with Escherichia coli [31] it was 0.002 µg/mL (≈ 0.00668 µM). For the same molecule, the inhibition entry in the series with Klebsiella pneumoniae [32], in the series on Escherichia coli [33], in the series with Klebsiella pneumoniae [34] and with Escherichia coli [35] was “Active” throughout.
Turning to `O=C(O)c1ccc2c([N+](=O)[O-])cc([N+](=O)[O-])c(O)c2n1`, the inhibition is 96% in [1]; 90% in series [2]; less than 20% in series [3]; 86% in the series on Bacteria [4]; 57% with Bacteria [5]; 34% in the series with Bacteria [6]. The inhibition was 91% in the series on Bacteria [7], 47% in the series with Bacteria [8] and less than 20% in the series with Bacteria [9].
On to GENTAMICIN, for which the MIC in the series on Escherichia coli [36] was determined as 0.002 µg/mL.
With `Oc1c(Cl)cc(Cl)c2cccnc12`, the inhibition in series [1] is 99%; in [2], 98%; in series [3] it was less than 20%; in the series with Bacteria [4] it was 97%; in the series on Bacteria [5], 90%; with Bacteria [6], 23%. For the same molecule, the inhibition was 97% with Bacteria [7], 95% with Bacteria [8] and 34% with Bacteria [9].
On to `Cc1ccc2c(Cl)cc(Cl)c(O)c2n1`, for which the inhibition was 91% in [1]; 71% in [2]; less than 20% in series [3]; 84% in the series with Bacteria [4]; 58% in the series with Bacteria [5]; 20% in the series on Bacteria [6]. Moreover, the inhibition in the series with Bacteria [7] came out at 92%; in the series on Bacteria [8] it was 73%; with Bacteria [9] it was 22%.
For the molecule `CCN1CCN(C(=O)N[C@@H](C(=O)N[C@@H]2C(=O)N3[C@@H]2SC(C)(C)[C@@H]3C(=O)O)c2ccccc2)C(=O)C1=O` [PIPERACILLIN], the MIC is 4.1 µg/mL (≈ 7.91 µM) in the series with Klebsiella pneumoniae [11] and 1.02 µg/mL (≈ 1.98 µM) with Escherichia coli [12].

The inhibition is the percentage by which the read-out fell short of the control. For orientation: IC50 means the concentration at which inhibition is half-maximal. As a reminder, the MIC is the lowest concentration that inhibits growth of the organism.
